Experimental data published in patent US20260234185A1, “ANTI-AGING COMPOSITION COMPRISING PEPTIDE COMPLEX AS ACTIVE INGREDIENT” (priority 2023, published 2026).
Where no end group is shown, it is not given here.

What was measured:
sirtuin 1 (SIRT1) = test: Western blot of SIRT1 protein expression in adipocytes; type: cell-based; conditions: differentiated 3T3-L1 adipocytes; 0.2, 2, 20 μg/mL; 1 hour; Western blot (FIGS. 1a, 1b)
Method: An experiment was performed to determine whether the peptide complex prepared in Preparation Example 1 using adipocytes increases the phosphorylation of AMP-activated protein kinase (AMPK), which is a longevity-related protein, and increases the expression levels of sirtuin 1 (SIRT1) and fibroblast growth factor 21 (FGF21) proteins in adipocytes.
(§1) When 3T3-L1 preadipocytes reached 80% confluence, they were seeded at 5×10^3 cells/well in a 96-well plate and used for the experiment. Two days after reaching confluence, the medium was replaced with a differentiation-inducing medium to induce the differentiation into adipocytes, and two days after the induction, the cells were cultured for 2 days in a medium containing 10% FBS and 10 μg/mL insulin, and then the medium was replaced with 10% FBS every 2 days until their differentiation into adipocytes. Once the differentiation was complete, the medium was replaced with a serum-free medium and cultured for 4 hours to induce starvation. The peptide complexes were treated at concentrations of 0.2 μg/mL, 2 μg/mL, and 20 μg/mL, incubated for 1 hour, dissolved by adding dissolution buffer thereto, and the proteins obtained by centrifugation at 4° C. and 12,000 rpm for 30 minutes were quantified using a BCA kit. […]

[1] = tested on: AMP-activated protein kinase (AMPK); test: Western blot of AMPK phosphorylation in palmitate-treated adipocytes (insulin metabolic disorder); type: cell-based; conditions: 3T3-L1 adipocytes, 25 μM palmitate 30 minutes; 0.2, 2, 20 μg/mL; 24 hours; Western blot (FIGS. 3a, 3b)
Method: An experiment was performed to determine whether the peptide complex prepared in Preparation Example 1 increases the phosphorylation of AMP-activated protein kinase (AMPK) and the expression level of SIRT1 (sirtuin1) protein in adipocytes in a state of insulin metabolic disorder induced by palmitate treatment.
as §1, with “Once” for “Once the”, “starvation. After 30 minutes of treatment with 25 μM palmitate, the” for “starvation. The”, “20 μg/mL and” for “20 μg/mL,”, “for 24 hours. After dissolving” for “for 1 hour, dissolved”, “dissolution buffer,” for “dissolution buffer thereto, and”

AMPK = test: Western blot of AMPK phosphorylation in myocytes; type: cell-based, mouse; conditions: differentiated C2C12 myocytes; 0.2, 2, 20 μg/mL; 24 hours; Western blot (FIGS. 6a, 6b)
Method: An experiment was performed to determine whether the peptide complex increases the phosphorylation of AMPK and the expression of SIRT1 and FGF21 proteins in myocytes.
C2C12 cells, mouse-derived myoblasts, were cultured in DMEM medium containing 1% P/S and 2% BCS. When the cell confluency reached 70-80%, the cells were seeded in a 6-well culture plate. When the cell confluency in the 6-well culture plate reached 100%, the medium was replaced with differentiation medium (1% P/S, 2% horse serum), and thereafter, the differentiation medium (1% P/S, 2% horse serum) was replaced once every two days. Five days after the first replacement, the peptide complex was treated at concentrations of 0.2 μg/mL, 2 μg/mL, and 20 μg/mL and cultured for 24 hours. The group untreated with the peptide complex was used as the control. After dissolving by adding dissolution buffer thereto, the proteins obtained were centrifuged at 4° C. and 12,000 rpm for 30 minutes, and quantified using a BCA kit. The proteins were subjected to sodium dodecyl sulfate-polyacrylamide gel electrophoresis (SDS-PAGE) and then electrotransferred onto a membrane. The membrane with the proteins attached was blocked by treating it with 5% skim milk, and then the primary antibody was reacted overnight at 4° C. […]

peptide complex: prepared by mixing equal amounts of the peptide of SEQ ID NO: 1 (LKTRN) and the peptide of SEQ ID NO: 2 (KGSATGWMA) (also: mixture of two peptides)
increased: expression level of SIRT1 protein (sirtuin 1 (SIRT1)) | phosphorylation of AMPKα [1] | phosphorylation of AMPK (AMPK)
